The values that follow come from patent US20260049071A1, “PROTEIN TYROSINE KINASE INHIBITOR AND MEDICAL USE THEREOF” (BEYANG THERAPEUTICS CO., LTD., priority 2022, published 2026).

One experiment addresses EGFR (Homo sapiens (Human), UniProt P00533). As to the kind of experiment: Kinase inhibition, Mobility Shift Assay (EGFR). Format: biochemical. On the procedure:
(§1) This assay directly monitored the ability of compounds to inhibit kinase phosphorylation by measuring non-phosphorylated and phosphorylated substrates in kinase reactions by using Mobility Shift Assays/IMAP™ analysis.
(§2) Add the kinase and DTT to 1× kinase buffer to form a 2.5× kinase solution; transfer 10 μL of 2.5× kinase solution to a 384-well reaction plate and add 1× kinase buffer to negative control wells. Incubate the plate for 10 min at room temperature; add FAM-labeled peptides, MgCl2, ATP and other reagents to 1× kinase buffer to form a 2.5× substrate solution; transfer 10 μL of the above 2.5× substrate solution to the 384-well reaction plate; incubate the plate at 28° C. for different times, and add 25 μL of stop solution to the 384-well reaction plate to stop the reaction. Read the conversion ratio data on CaliperEZ Reader II. Convert conversion rates into inhibition ratio data.
(§3) “Min” indicates the readout of the control well without the addition of kinase; and “Max” indicates the readout of the control well with the addition of DMSO. Fit IC50 values with XLFit excel add-in version 5.4.0.8.
(§4) X indicates the log value of compound concentration, and Y indicates the inhibition ratio (% inhibition).

A further experiment addresses KDR (VEGFR2) (Homo sapiens (Human), UniProt P35968). Briefly: Kinase inhibition, Mobility Shift Assay (VEGFR2). Format: biochemical. The method, then:
as §1, §2, §3, §4

EGFR, sequence (P00533 25-1210): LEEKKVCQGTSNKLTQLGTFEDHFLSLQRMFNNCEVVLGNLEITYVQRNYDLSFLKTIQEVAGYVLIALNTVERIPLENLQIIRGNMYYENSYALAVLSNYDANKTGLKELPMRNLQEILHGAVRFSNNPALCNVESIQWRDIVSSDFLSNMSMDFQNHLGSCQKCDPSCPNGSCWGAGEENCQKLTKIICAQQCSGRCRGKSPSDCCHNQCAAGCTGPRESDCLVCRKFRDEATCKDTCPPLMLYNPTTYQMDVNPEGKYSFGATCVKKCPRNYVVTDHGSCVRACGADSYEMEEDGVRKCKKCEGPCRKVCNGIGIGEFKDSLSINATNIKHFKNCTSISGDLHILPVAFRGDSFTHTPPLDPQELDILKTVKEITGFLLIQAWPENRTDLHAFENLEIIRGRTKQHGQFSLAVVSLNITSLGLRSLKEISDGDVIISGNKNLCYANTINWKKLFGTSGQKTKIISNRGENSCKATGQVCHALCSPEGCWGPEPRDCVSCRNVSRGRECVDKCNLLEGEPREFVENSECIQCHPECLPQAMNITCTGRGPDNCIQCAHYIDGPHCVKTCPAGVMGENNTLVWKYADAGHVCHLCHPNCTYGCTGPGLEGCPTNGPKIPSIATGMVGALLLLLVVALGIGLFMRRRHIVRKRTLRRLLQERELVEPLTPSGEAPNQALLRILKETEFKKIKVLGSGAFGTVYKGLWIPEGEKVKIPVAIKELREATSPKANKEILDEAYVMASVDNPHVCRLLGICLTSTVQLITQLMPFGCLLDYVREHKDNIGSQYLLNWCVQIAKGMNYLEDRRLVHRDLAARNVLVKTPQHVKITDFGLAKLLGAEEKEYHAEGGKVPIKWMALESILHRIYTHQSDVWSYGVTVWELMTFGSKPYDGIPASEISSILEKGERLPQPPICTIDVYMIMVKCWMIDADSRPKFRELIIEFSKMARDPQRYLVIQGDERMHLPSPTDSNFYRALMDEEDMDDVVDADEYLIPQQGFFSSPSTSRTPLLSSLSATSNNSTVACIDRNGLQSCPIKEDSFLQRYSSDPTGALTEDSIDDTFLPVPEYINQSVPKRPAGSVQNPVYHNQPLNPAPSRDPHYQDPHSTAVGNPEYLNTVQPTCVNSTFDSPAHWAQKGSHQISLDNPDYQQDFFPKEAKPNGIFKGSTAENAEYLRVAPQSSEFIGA
KDR (VEGFR2), sequence (P35968 790-1356): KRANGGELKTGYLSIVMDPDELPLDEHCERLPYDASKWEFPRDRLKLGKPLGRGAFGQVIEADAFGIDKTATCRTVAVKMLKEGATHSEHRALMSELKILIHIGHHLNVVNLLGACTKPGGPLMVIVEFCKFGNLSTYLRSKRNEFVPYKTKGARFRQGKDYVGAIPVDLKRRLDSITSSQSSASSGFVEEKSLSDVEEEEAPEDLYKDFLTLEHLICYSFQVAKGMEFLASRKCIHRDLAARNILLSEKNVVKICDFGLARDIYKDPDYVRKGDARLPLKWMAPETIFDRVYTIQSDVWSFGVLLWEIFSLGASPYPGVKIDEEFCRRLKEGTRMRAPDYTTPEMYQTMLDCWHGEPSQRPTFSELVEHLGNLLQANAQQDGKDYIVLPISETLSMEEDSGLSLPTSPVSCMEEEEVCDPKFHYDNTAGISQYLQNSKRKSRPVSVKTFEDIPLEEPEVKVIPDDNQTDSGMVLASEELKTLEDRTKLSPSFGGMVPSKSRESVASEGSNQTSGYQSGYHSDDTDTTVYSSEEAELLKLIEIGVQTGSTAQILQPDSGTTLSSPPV

Regarding `O=C(NC1CC1)c1ccccc1Oc1ccc2c(/C=C/c3ccc(CN4CCCC4)cn3)n[nH]c2c1` [Compound I-81, N-cyclopropyl-2-({3-[(E)-2-{5-[(pyrrolidin-1-yl)methyl]pyridin-2-yl}vinyl]-1H-indazol-6-yl}oxy)benzamide], the IC50 was in the range of 6000 to 60000 nM on EGFR and 10 to 100 nM on KDR (VEGFR2).

As for `CNC(=O)c1ccccc1Sc1ccc2c(/C=C/c3ccc(CN4CCCC4)cn3)n[nH]c2c1` [Compound I-74, N-methyl-2-({3-[(E)-2-{5-[(pyrrolidin-1-yl)methyl]pyridin-2-yl}vinyl]-1H-indazol-6-yl}thio)benzamide], the concentration for half-maximal inhibition (IC50) lay in the range of 6000 to 60000 nM at EGFR and 1 to 10 nM on KDR (VEGFR2).

Turning to `CCN(CC)CCc1ccc(/C=C/c2n[nH]c3cc(Sc4cc(F)ccc4C(=O)NC4CC4)ccc23)nc1` [Compound I-108, N-cyclopropyl-2-({3-[(E)-2-{5-[2-(diethylamino)ethyl]pyridin-2-yl}vinyl]-1H-indazol-6-yl}thio)-4-fluorobenzamide], the 50% inhibitory concentration (IC50) on EGFR was 6000 to 60000 nM; on KDR (VEGFR2) it was not above 1 nM.

As to `O=C(NC1CC1)c1cc(F)ccc1Sc1ccc2c(/C=C/c3cccc(CN4CCCC4)n3)n[nH]c2c1` [Compound I-138, N-cyclopropyl-5-fluoro-2-({3-[(E)-2-{6-[(pyrrolidin-1-yl)methyl]pyridin-2-yl}vinyl]-1H-indazol-6-yl}thio)benzamide], the IC50 on EGFR is more than 60000 nM; at KDR (VEGFR2) it was 1 to 10 nM.

As for `CCNC(=O)c1cc(F)ccc1Sc1ccc2c(/C=C/c3cc(CCCN4CCCC4)ccn3)n[nH]c2c1` [Compound I-122, N-ethyl-5-fluoro-2-({3-[(E)-2-{4-[3-(pyrrolidin-1-yl)propyl]pyridin-2-yl}vinyl]-1H-indazol-6-yl}thio)benzamide], the IC50 at EGFR is more than 60000 nM; on KDR (VEGFR2), 1 to 10 nM.

For the compound `CCNC(=O)c1cccc(F)c1Sc1ccc2c(/C=C/c3ccc(CN4CCCC4)cn3)n[nH]c2c1` [Compound I-75, N-ethyl-3-fluoro-2-({3-[(E)-2-{5-[(pyrrolidin-1-yl)methyl]pyridin-2-yl}vinyl]-1H-indazol-6-yl}thio)benzamide], the 50% inhibitory concentration (IC50) fell in the range of 6000 to 60000 nM at EGFR and 1 to 10 nM at KDR (VEGFR2).

For the compound `O=C(NC1CC1)c1cccc(F)c1Sc1ccc2c(/C=C/c3cccc(CCCN4CCCC4)n3)n[nH]c2c1` [Compound I-124], the concentration for half-maximal inhibition (IC50) fell in the range of 6000 to 60000 nM on EGFR and 10 to 100 nM on KDR (VEGFR2).

On to `O=C(NC1CC1)c1cc(F)ccc1Sc1ccc2c(/C=C/c3cnn(CCCN4CCCC4)c3)n[nH]c2c1` [Compound I-46, N-cyclopropyl-5-fluoro-2-({3-[(E)-2-{1-[3-(pyrrolidin-1-yl)propyl]-1H-pyrazol-4-yl}vinyl]-1H-indazol-6-yl}thio)benzamide], for which the IC50 at EGFR was 6000 to 60000 nM; at KDR (VEGFR2), not above 1 nM.

With `O=C(NC1CC1)c1ccccc1Sc1ccc2c(/C=C/c3ccn(CCN4CCCC4)n3)n[nH]c2c1` [Compound I-60, N-cyclopropyl-2-({3-[(E)-2-{1-[2-(pyrrolidin-1-yl)ethyl]-1H-pyrazol-3-yl}vinyl]-1H-indazol-6-yl}thio)benzamide], the IC50 on EGFR lay within 600 to 6000 nM; on KDR (VEGFR2), 1 to 10 nM.

Consider `O=C(NC1CC1)c1cc(F)ccc1Sc1ccc2c(/C=C/c3cccc(CCCN4CCCC4)n3)n[nH]c2c1` [Compound I-132, N-cyclopropyl-5-fluoro-2-({3-[(E)-2-{6-[3-(pyrrolidin-1-yl)propyl]pyridin-2-yl}vinyl]-1H-indazol-6-yl}thio)benzamide], for which the IC50 at EGFR fell in the range of 6000 to 60000 nM; at KDR (VEGFR2) it was 1 to 10 nM.

On to `O=C(NC1CC1)c1cccc(F)c1Sc1ccc2c(/C=C/c3ccn(CCN4CCCC4)n3)n[nH]c2c1` [Compound I-69], for which the IC50 on EGFR fell in the range of 6000 to 60000 nM; at KDR (VEGFR2) it was 10 to 100 nM.

With `CCNC(=O)c1ccc(F)cc1Sc1ccc2c(/C=C/c3cnn(CCCN4CCCC4)c3)n[nH]c2c1` [Compound I-103, N-ethyl-4-fluoro-2-({3-[(E)-2-{1-[3-(pyrrolidin-1-yl)propyl]-1H-pyrazol-4-yl}vinyl]-1H-indazol-6-yl}thio)benzamide], the half-maximal inhibitory concentration (IC50) at EGFR was 6000 to 60000 nM; at KDR (VEGFR2), not above 1 nM.

On to `O=C(NC1CC1)c1ccccc1Sc1ccc2c(/C=C/c3cc(CCN4CCCC4)ccn3)n[nH]c2c1` [Compound I-133, N-cyclopropyl-2-({3-[(E)-2-{4-[2-(pyrrolidin-1-yl)ethyl]pyridin-2-yl}vinyl]-1H-indazol-6-yl}thio)benzamide], for which the half-inhibitory concentration (IC50) at EGFR is more than 60000 nM; on KDR (VEGFR2) it was 1 to 10 nM.

With `O=C(NC1CC1)c1cc(F)ccc1Sc1ccc2c(/C=C/c3cccc(CCN4CCCC4)n3)n[nH]c2c1` [Compound I-136, N-cyclopropyl-5-fluoro-2-({3-[(E)-2-{6-[2-(pyrrolidin-1-yl)ethyl]pyridin-2-yl}vinyl]-1H-indazol-6-yl}thio)benzamide], the IC50 on EGFR is more than 60000 nM; at KDR (VEGFR2), 1 to 10 nM.

Turning to `O=C(NC1CC1)c1cccc(F)c1Sc1ccc2c(/C=C/c3cccc(CCN4CCCC4)n3)n[nH]c2c1` [Compound I-128, N-cyclopropyl-3-fluoro-2-({3-[(E)-2-{6-[2-(pyrrolidin-1-yl)ethyl]pyridin-2-yl}vinyl]-1H-indazol-6-yl}thio)benzamide], the figures for the 50% inhibitory concentration (IC50) on EGFR and on KDR (VEGFR2) were more than 60000 nM and 10 to 100 nM, respectively.

As for `O=C(NC1CC1)c1cc(F)ccc1Sc1ccc2c(/C=C/c3cc(CN4CCCC4)ccn3)n[nH]c2c1` [Compound I-137, N-cyclopropyl-5-fluoro-2-({3-[(E)-2-{4-[(pyrrolidin-1-yl)methyl]pyridin-2-yl}vinyl]-1H-indazol-6-yl}thio)benzamide], the IC50 was more than 60000 nM at EGFR and 1 to 10 nM on KDR (VEGFR2).

As for `CCNC(=O)c1cccc(F)c1Sc1ccc2c(/C=C/c3ccc(CN(CC)CC)cn3)n[nH]c2c1` [Compound I-111, 2-({3-[(E)-2-{5-[(diethylamino)methyl]pyridin-2-yl}vinyl]-1H-indazol-6-yl}thio)-N-ethyl-3-fluorobenzamide], the 50% inhibitory concentration (IC50) at EGFR lay within 6000 to 60000 nM; at KDR (VEGFR2), 1 to 10 nM.

For the compound `O=C(NC1CC1)c1cccc(F)c1Sc1ccc2c(/C=C/c3cc(CCCN4CCCC4)ccn3)n[nH]c2c1` [Compound I-123], the IC50 at EGFR was more than 60000 nM; on KDR (VEGFR2), 10 to 100 nM.

Consider `CCNC(=O)c1cccc(F)c1Sc1ccc2c(/C=C/c3cccc(CCN4CCCC4)n3)n[nH]c2c1` [Compound I-129, N-ethyl-3-fluoro-2-({3-[(E)-2-{6-[2-(pyrrolidin-1-yl)ethyl]pyridin-2-yl}vinyl]-1H-indazol-6-yl}thio)benzamide], for which the half-maximal inhibitory concentration (IC50) on EGFR is more than 60000 nM; at KDR (VEGFR2), 10 to 100 nM.

Consider `CCN(CC)Cc1ccc(/C=C/c2n[nH]c3cc(Sc4cc(F)ccc4C(=O)NC)ccc23)nc1` [Compound I-92, 2-({3-[(E)-2-{5-[(diethylamino)methyl]pyridin-2-yl}vinyl]-1H-indazol-6-yl}thio)-4-fluoro-N-methylbenzamide], for which the IC50 lay in the range of 6000 to 60000 nM on EGFR and 1 to 10 nM on KDR (VEGFR2).

Regarding `O=C(NC1CC1)c1ccccc1Sc1ccc2c(C#Cc3ccc(OCCN4CCCC4)cn3)n[nH]c2c1` [Compound I-139, N-cyclopropyl-2-{[3-(2-{5-[2-(pyrrolidin-1-yl)ethoxy]pyridin-2-yl}ethynyl)-1H-indazol-6-yl]thio}benzamide], the IC50 on EGFR was more than 60000 nM; on KDR (VEGFR2), 10 to 100 nM.

Consider `CCNC(=O)c1cccc(F)c1Sc1ccc2c(/C=C/c3cc(CN4CCCC4)ccn3)n[nH]c2c1` [Compound I-114, N-ethyl-3-fluoro-2-({3-[(E)-2-{4-[(pyrrolidin-1-yl)methyl]pyridin-2-yl}vinyl]-1H-indazol-6-yl}thio)benzamide], for which the IC50 on EGFR is more than 60000 nM; at KDR (VEGFR2) it was more than 100 nM.

`CCNC(=O)c1ccc(Sc2ccc3c(/C=C/c4ccc(CN(CC)CC)cn4)n[nH]c3c2)cc1F` [Compound I-87, 4-({3-[(E)-2-{5-[(diethylamino)methyl]pyridin-2-yl}vinyl]-1H-indazol-6-yl}thio)-N-ethyl-2-fluorobenzamide]: the concentration for half-maximal inhibition (IC50) on EGFR was more than 60000 nM; on KDR (VEGFR2) it was more than 100 nM.

In the case of `O=C(NC1CC1)c1cc(F)ccc1Sc1ccc2c(/C=C/c3cc(CCN4CCCC4)ccn3)n[nH]c2c1` [Compound I-135, N-cyclopropyl-5-fluoro-2-({3-[(E)-2-{4-[2-(pyrrolidin-1-yl)ethyl]pyridin-2-yl}vinyl]-1H-indazol-6-yl}thio)benzamide], the figures for the concentration for half-maximal inhibition (IC50) at EGFR and on KDR (VEGFR2) were more than 60000 nM and 10 to 100 nM, respectively.

Turning to `CCNC(=O)c1cccc(F)c1Sc1ccc2c(/C=C/c3cnn(CCCN4CCCC4)c3)n[nH]c2c1` [Compound I-102], the concentration for half-maximal inhibition (IC50) fell in the range of 6000 to 60000 nM on EGFR and 10 to 100 nM on KDR (VEGFR2).

Take `O=C(NC1CC1)c1cccc(F)c1Sc1ccc2c(/C=C/c3cc(OCCN4CCCC4)ccn3)n[nH]c2c1` [Compound I-112, N-cyclopropyl-3-fluoro-2-({3-[(E)-2-{4-[2-(pyrrolidin-1-yl)ethoxy]pyridin-2-yl}vinyl]-1H-indazol-6-yl}thio)benzamide]: the half-maximal inhibitory concentration (IC50) is 6000 to 60000 nM at EGFR and 10 to 100 nM on KDR (VEGFR2).

Regarding `CNC(=O)c1cc(F)ccc1Sc1ccc2c(/C=C/c3ccc(CN4CCCC4)cn3)n[nH]c2c1` [Compound I-95, 5-fluoro-N-methyl-2-({3-[(E)-2-{5-[(pyrrolidin-1-yl)methyl]pyridin-2-yl}vinyl]-1H-indazol-6-yl}thio)benzamide], the results for the IC50 at EGFR and on KDR (VEGFR2) were 6000 to 60000 nM and 1 to 10 nM, respectively.
